Laboratory results from US5070210A, “Novel ketenimines as intermediates for insecticides” (ICI Americas Inc., priority 1990, dated 1991).

What was measured:
Assay type in all cases: in vivo
[1] = system: Housefly [Musca domestica]; assay: Housefly insecticidal test; settings: μg per 25 female flies; mortality after 48 hours
Procedure, shortened: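 Residual contact test: acetone dilution, 0.01% peanut oil spreader, solvent evaporated; 25 ♀ flies (1-2 d old) per cage; sugar-water plug; 48 h mortality read. LC50 in μg/25 female flies, from dose-mortality curves; top dose 100 μg/25 flies.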

[2] = system: Tobacco Budworm [Heliothis virescens (Fabricius)] eggs; assay: Tobacco budworm egg test; settings: 2-day old eggs, percent in solution
Procedure, shortened: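 Paper towel patches bearing 2-day old eggs were dipped in acetone solutions of compound, then set in petri dishes over larval rearing medium at 78° F. Mortality was scored once all control eggs had hatched and larvae were feeding. LC50, from dosage-mortality curves, is given as percent compound in solution.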

[3] = system: Cabbage Looper [Trichoplusia ni (Hubner)]; assay: Cabbage looper insecticidal test; settings: second-instar larvae, percent in solution; 3-5 days
Procedure, shortened: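 Compounds in 50-50 acetone-water were applied by dipping squash cotyledons (about 1×1.5 in) for 2-3 s; dried leaves went into petri dishes on moist filter paper with 5 second-instar larvae under high humidity. Mortality was scored after 3-5 days; LC50 from dosage-mortality curves, as percent compound in solution.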

[4] = system: Maize weevil [Sitophilus Zeamais (Motschulsky)]; assay: Maize weevil insecticidal test; settings: adult weevils, percent in solution; 48 hours
Procedure, shortened: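 LC50, in percent of compound in solution, was derived from dosage-mortality curves after 48 h at about 25 °C. Ten adult weevils per container fed on four corn seeds briefly immersed in acetone:water (50:50) solutions of up to 0.01% and dried.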

Row | Structure (SMILES) | LC50, HF [1] | LC50, TBW, E (TBW-E) [2] | LC50, CL [3] | LC50, MW [4]
1 | CC(C)C(=Nc1cccc(C(F)(F)F)c1)OCc1cccc(Oc2ccc(Cl)cc2)n1 [Compound 477] | 20 µg | > 0.1% | 0.0003% | 0.0076%
2 | Fc1ccc(Oc2cccc(COC(=Nc3ccc(F)c(Cl)c3)C3CC3)c2)cc1 [Compound 116] | 15 µg | 0.05% | 0.00025% | > 0.01%
3 | CC(C)C(=Nc1cccc(I)c1)OCc1cccc(Oc2ccc(Cl)cc2)c1 [Compound 389] | < 100 µg | > 0.1% | 0.00069% | > 0.01%
4 | CC(C)C(=Nc1cccc(OC(F)(F)F)c1)OCc1ccc(F)c(Oc2ccccc2)c1 [Compound 437] | < 100 µg | 0.025% | 0.00075% | > 0.01%
5 | CC(C)C(=Nc1ccc(C(F)(F)F)cc1[N+](=O)[O-])OCc1ccc(F)c(Oc2ccccc2)c1 [Compound 445] | < 100 µg | > 0.1% | 0.00045% | > 0.01%
6 | C=C(C)C(=Nc1ccc(C(F)(F)F)cc1)OCc1cccc(Oc2ccc(Cl)cc2)n1 [Compound 560] | < 100 µg | < 0.1% | 0.0015% | > 0.01%
7 | CCc1ccc(N=C(OCc2cccc(Oc3ccccc3)c2)C(C)(C)C)cc1 [Compound 163] | > 100 µg | > 0.1% | 0.004% | > 0.01%
8 | Cc1ccc(N=C(OCc2cccc(Oc3ccc(F)cc3)c2)C(C)C)cc1Cl [Compound 402] | < 100 µg | > 0.1% | > 0.1% | > 0.01%
9 | CC(C)c1ccc(N=C(OCc2cccc(Oc3ccccc3)c2)C2CCC2)cc1 [Compound 339] | > 100 µg | > 0.1% | 0.017% | > 0.01%
10 | CC(C)C(=Nc1ccc(F)cc1F)OCc1coc(Cc2ccccc2)c1 [Compound 486] | 15 µg | > 0.1% | > 0.1% | > 0.01%
11 | Fc1ccc(COC(=Nc2ccc(C(F)(F)F)cc2)C2CC2)cc1Oc1ccc(Cl)cc1 [Compound 444] | > 100 µg | 0.023% | 0.00015% | > 0.01%
12 | CCOc1ccc(N=C(OCc2ccc(F)c(Oc3ccccc3)c2)C(C)C)cc1 [Compound 373] | < 100 µg | > 0.1% | > 0.1% | > 0.01%
13 | CC(C)C(=Nc1ccc(S(C)(=O)=O)cc1)OCc1ccc(F)c(Oc2ccc(F)cc2)c1 [Compound 414] | < 100 µg | > 0.1% | 0.0024% | > 0.01%
14 | CC(C)C(=Nc1ccc(F)c(I)c1)OCc1cccc(Oc2ccc(Cl)cc2)c1 [Compound 413] | < 100 µg | 0.04% | 0.0007% | > 0.01%
